# Data reported in patent publication US20230115274A1, “COMPOUNDS AND COMPOSITIONS FOR TREATING CONDITIONS ASSOCIATED WITH STING ACTIVITY” (IFM Due, Inc., priority 2019, published 2023).
# Biological target: T1, hSTING (Homo sapiens, UniProt Q86WV6, G230A/H232R/R293Q/R71H)
# T1 construct: host or cells: THP1-Dual KO-IFNAR2 cells
# Assay: STING reporter assay (luciferase) in THP1-Dual KO-IFNAR2 cells stimulated with 2′3′cGAMP
# Type: cell-based
# Settings: 2′3′cGAMP 15 μM, 24 h, class symbols
# In short: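 THP1-Dual KO-IFNAR2 cells (2×10E6 cells/mL) were treated with compound at 0.0017-100 μM final plus 15 μM final 2′3′cGAMP delivered with Lipofectamine 2000. After 24 h at 37° C., secreted luciferase in supernatant was read by QUANTI-Luc luminescence and EC50 values were fitted.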
# T1 sequence (Q86WV6 whole entry R71H/G230A/H232R/R293Q): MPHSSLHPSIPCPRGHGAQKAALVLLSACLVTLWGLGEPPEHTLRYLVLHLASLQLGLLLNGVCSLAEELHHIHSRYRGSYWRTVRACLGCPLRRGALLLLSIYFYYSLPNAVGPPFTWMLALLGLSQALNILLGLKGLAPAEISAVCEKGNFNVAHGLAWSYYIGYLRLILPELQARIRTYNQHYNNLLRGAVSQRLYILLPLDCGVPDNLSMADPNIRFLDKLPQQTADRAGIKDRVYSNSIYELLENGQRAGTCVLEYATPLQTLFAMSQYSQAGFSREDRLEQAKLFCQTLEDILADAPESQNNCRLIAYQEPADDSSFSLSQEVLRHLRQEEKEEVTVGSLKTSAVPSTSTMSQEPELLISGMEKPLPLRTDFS
row,EC50 [nM],SMILES
1,200 to 1000,"O=C(Nc1ccc(C2CC(F)(F)C2)c(F)c1)Nc1c[nH]c2ncc(F)cc12 [Compound 201, 1-(4-(3,3-difluorocyclobutyl)-3-fluorophenyl)-3-(5-fluoro-1H-pyrrolo[2,3-b]pyridin-3-yl)urea]"
2,200 to 1000,"O=C(Nc1cnc(N2CCC(F)(F)CC2)c(Cl)c1)Nc1c[nH]c2ccc(OCC(F)(F)F)nc12 [Compound 208, 1-(5-chloro-6-(4,4-difluoropiperidin-1-yl)pyridin-3-yl)-3-(5-(2,2,2-trifluoroethoxy)-1H-pyrrolo[3,2-b]pyridin-3-yl)urea]"
3,200 to 1000,"O=C(Nc1cnc(C2CCC(F)(F)CC2)c(Cl)c1)Nc1c[nH]c2cccnc12 [Compound 142, 1-(5-chloro-6-(4,4-difluorocyclohexyl)pyridin-3-yl)-3-(1H-pyrrolo[3,2-b]pyridin-3-yl)urea]"
4,200 to 1000,"N#Cc1cc(NC(=O)Nc2c[nH]c3c(F)cncc23)ccc1C1CCC(F)(F)CC1 [Compound 149, 1-(3-cyano-4-(4,4-difluorocyclohexyl)phenyl)-3-(7-fluoro-1H-pyrrolo[3,2-c]pyridin-3-yl)urea]"
5,1000 to 5000,"O=C(Nc1cc(Cl)nc(C2CCC(F)(F)CC2)c1)Nc1c[nH]c2cccnc12 [Compound 217, 1-(2-chloro-6-(4,4-difluorocyclohexyl)pyridin-4-yl)-3-(1H-pyrrolo[3,2-b]pyridin-3-yl)urea]"
6,200 to 1000,"COc1ccc2[nH]cc(NC(=O)Nc3cnc(N4CCC(F)(F)CC4)c(C)c3)c2n1 [Compound 173, 1-(6-(4,4-difluoropiperidin-1-yl)-5-methylpyridin-3-yl)-3-(5-methoxy-1H-pyrrolo[3,2-b]pyridin-3-yl)urea]"
7,1000 to 5000,"CC(O)c1cc(NC(=O)Nc2c[nH]c3ncc(F)cc23)cnc1N1CCC(F)(F)CC1 (centres unmarked) [Compound 138, 1-(6-(4,4-difluoropiperidin-1-yl)-5-(1-hydroxyethyl)pyridin-3-yl)-3-(5-fluoro-1H-pyrrolo[2,3-b]pyridin-3-yl)urea]"
8,1000 to 5000,"O=C(Nc1ccc(C2CC(F)(F)C2)nc1)Nc1c[nH]c2ncc(F)cc12 [Compound 161, 1-(6-(3,3-difluorocyclobutyl)pyridin-3-yl)-3-(5-fluoro-1H-pyrrolo[2,3-b]pyridin-3-yl)urea]"
9,5000 to 100000,"O=C(Nc1cnc(N2CCC(F)(F)CC2)c(Cl)c1)Nc1c[nH]c2cc(Br)cnc12 [Compound 240, 1-(6-bromo-1H-pyrrolo[3,2-b]pyridin-3-yl)-3-(5-chloro-6-(4,4-difluoropiperidin-1-yl)pyridin-3-yl)urea]"
10,1000 to 5000,"CCc1ccc2[nH]cc(NC(=O)Nc3cnc(N4CCC(F)(F)CC4)c(C)c3)c2n1 [Compound 139, 1-(6-(4,4-difluoropiperidin-1-yl)-5-methylpyridin-3-yl)-3-(5-ethyl-1H-pyrrolo[3,2-b]pyridin-3-yl)urea]"
11,1000 to 5000,"COCCOc1ccc2[nH]cc(NC(=O)Nc3ccc(C4CCC(F)(F)CC4)nc3)c2n1 [Compound 212, 1-(6-(4,4-difluorocyclohexyl)pyridin-3-yl)-3-(5-(2-methoxyethoxy)-1H-pyrrolo[3,2-b]pyridin-3-yl)urea]"
12,200 to 1000,"O=C(Nc1cnc(N2CCC(F)(F)CC2)c(Cl)c1)Nc1c[nH]c2cc(F)cnc12 [Compound 145, 1-(5-chloro-6-(4,4-difluoropiperidin-1-yl)pyridin-3-yl)-3-(6-fluoro-1H-pyrrolo[3,2-b]pyridin-3-yl)urea]"
13,5000 to 100000,"O=C(Nc1cnc(N2CCC(F)(F)CC2)c(CCO)c1)Nc1c[nH]c2ncc(F)cc12 [Compound 147, 1-(6-(4,4-difluoropiperidin-1-yl)-5-(2-hydroxyethyl)pyridin-3-yl)-3-(5-fluoro-1H-pyrrolo[2,3-b]pyridin-3-yl)urea]"
14,40 to 200,"O=C(Nc1cnc(N2CCC(F)(F)CC2)c(Cl)c1)Nc1c[nH]c2ccc(Br)nc12 [Compound 236, 1-(5-bromo-1H-pyrrolo[3,2-b]pyridin-3-yl)-3-(5-chloro-6-(4,4-difluoropiperidin-1-yl)pyridin-3-yl)urea]"
15,200 to 1000,"Cc1cc(NC(=O)Nc2c[nH]c3ncc(F)cc23)cnc1N1CC2(C1)CC(F)(F)C2 [Compound 162, 1-(6-(6,6-difluoro-2-azaspiro[3.3]heptan-2-yl)-5-methylpyridin-3-yl)-3-(5-fluoro-1H-pyrrolo[2,3-b]pyridin-3-yl)urea]"
16,1000 to 5000,"N#Cc1cc(NC(=O)Nc2c[nH]c3cccnc23)cnc1C1CCC(F)(F)CC1 [Compound 237, 1-(5-cyano-6-(4,4-difluorocyclohexyl)pyridin-3-yl)-3-(1H-pyrrolo[3,2-b]pyridin-3-yl)urea]"
17,200 to 1000,"O=C(Nc1cnc(N2CCC(F)(F)CC2)cn1)Nc1c[nH]c2ncc(F)cc12 [Compound 191, 1-(5-(4,4-difluoropiperidin-1-yl)pyrazin-2-yl)-3-(5-fluoro-1H-pyrrolo[2,3-b]pyridin-3-yl)urea]"
18,200 to 1000,"O=C(Nc1ccc(N2CCC(F)(F)CC2)nc1)Nc1c[nH]c2ncc(F)cc12 [Compound 118, 1-(6-(4,4-difluoropiperidin-1-yl)pyridin-3-yl)-3-(5-fluoro-1H-pyrrolo[2,3-b]pyridin-3-yl)urea]"
19,40 to 200,"Cc1cc(NC(=O)Nc2c[nH]c3ncc(F)cc23)cnc1N1CCC(F)(F)CC1 [Compound 198, 1-(6-(4,4-difluoropiperidin-1-yl)-5-methylpyridin-3-yl)-3-(5-fluoro-1H-pyrrolo[2,3-b]pyridin-3-yl)urea]"
20,200 to 1000,"O=C(Nc1cnc(N2CCC3(CC2)CC(F)(F)C3)c(Cl)c1)Nc1c[nH]c2cccnc12 [Compound 226, 1-(5-chloro-6-(2,2-difluoro-7-azaspiro[3.5]nonan-7-yl)pyridin-3-yl)-3-(1H-pyrrolo[3,2-b]pyridin-3-yl)urea]"
21,200 to 1000,"Cc1cc(NC(=O)Nc2c[nH]c3ncc(F)cc23)cnc1N1CCC(C)CC1 [Compound 170, 1-(5-fluoro-1H-pyrrolo[2,3-b]pyridin-3-yl)-3-(5-methyl-6-(4-methylpiperidin-1-yl)pyridin-3-yl)urea]"

# Same assay, conditions: 2′3′cGAMP 15 μM, 24 h, numeric bounds
row,EC50 [nM],SMILES
1,> 30000,"O=C(Nc1ncc(N2CCC(F)(F)CC2)cc1Cl)Nc1c[nH]c2ncc(F)cc12 [Compound 178, 1-(3-chloro-5-(4,4-difluoropiperidin-1-yl)pyridin-2-yl)-3-(5-fluoro-1H-pyrrolo[2,3-b]pyridin-3-yl)urea]"
2,> 30000,"Cn1cc(-n2cc(NC(=O)Nc3ccc(C4CCC(F)(F)CC4)nc3)c3cc(F)cnc32)cn1 [Compound 125, 1-(6-(4,4-difluorocyclohexyl)pyridin-3-yl)-3-(5-fluoro-1-(1-methyl-1H-pyrazol-4-yl)-1H-pyrrolo[2,3-b]pyridin-3-yl)urea]"
3,> 30000,"COc1ccc2[nH]cc(NC(=O)Nc3cnn(C4CCC(F)(F)CC4)c3)c2n1 [Compound 209, 1-(1-(4,4-difluorocyclohexyl)-1H-pyrazol-4-yl)-3-(5-methoxy-1H-pyrrolo[3,2-b]pyridin-3-yl)urea]"
4,> 30000,"Cc1cc(NC(=O)Nc2c[nH]c3ncc(F)cc23)cnc1N1CCOCC1 [Compound 167, 1-(5-fluoro-1H-pyrrolo[2,3-b]pyridin-3-yl)-3-(5-methyl-6-morpholinopyridin-3-yl)urea]"
5,> 30000,"O=C(Nc1cnc(N2CCC(F)(F)CC2)cc1Cl)Nc1c[nH]c2ncc(F)cc12 [Compound 183, 1-(4-chloro-6-(4,4-difluoropiperidin-1-yl)pyridin-3-yl)-3-(5-fluoro-1H-pyrrolo[2,3-b]pyridin-3-yl)urea]"
